Experimental data as given in the NIST ThermoML archive (doi:10.1016/j.fluid.2015.09.010).

Assay: xn = mol fraction of the nth substance listed
Details: Gas, single sinker densimeter

F/C=C/C(F)(F)F [trans-1,3,3,3-tetrafluoropropene] + CCC
Details	mass density [kg/m3]
283.19 K, 198.03 kPa, x1 = 0.168	4.884
283.19 K, 220.83 kPa, x1 = 0.5076	7.8406
283.19 K, 312.57 kPa, x1 = 0.168	7.9025
283.19 K, 369.65 kPa, x1 = 0.5076	13.6268
283.19 K, 411.95 kPa, x1 = 0.168	10.6601
283.19 K, 498.32 kPa, x1 = 0.5076	19.0511
283.19 K, 515.38 kPa, x1 = 0.168	13.6875
283.19 K, 612.31 kPa, x1 = 0.168	16.7013
283.2 K, 100.73 kPa, x1 = 0.679	4.0148
283.2 K, 101.73 kPa, x1 = 0.5076	3.5184
283.2 K, 202.42 kPa, x1 = 0.679	8.2655
283.2 K, 307.97 kPa, x1 = 0.679	12.9389
283.21 K, 409.61 kPa, x1 = 0.679	17.7339
283.23 K, 209.78 kPa, x1 = 0.8949	10.0762
283.23 K, 328.84 kPa, x1 = 0.8949	16.4078
283.24 K, 102.25 kPa, x1 = 0.8949	4.7652
288.24 K, 101.08 kPa, x1 = 0.3426	2.9277
288.24 K, 229.6 kPa, x1 = 0.3426	6.8193
288.25 K, 344.87 kPa, x1 = 0.3426	10.4999
288.25 K, 452.7 kPa, x1 = 0.3426	14.1363
288.25 K, 583.57 kPa, x1 = 0.3426	18.8469
288.25 K, 689.73 kPa, x1 = 0.3426	22.9563
288.26 K, 595.72 kPa, x1 = 0.168	15.7412
288.26 K, 711.04 kPa, x1 = 0.168	19.385
288.27 K, 213.38 kPa, x1 = 0.168	5.1751
288.27 K, 334.82 kPa, x1 = 0.168	8.3244
288.27 K, 445.46 kPa, x1 = 0.168	11.3478
288.28 K, 101.56 kPa, x1 = 0.168	2.4124
288.29 K, 101.07 kPa, x1 = 0.5076	3.4268
288.29 K, 220.99 kPa, x1 = 0.5076	7.6809
288.29 K, 444.05 kPa, x1 = 0.5076	16.2865
288.29 K, 578.73 kPa, x1 = 0.5076	22.0366
288.3 K, 101.4 kPa, x1 = 0.679	3.9663
288.3 K, 227.2 kPa, x1 = 0.679	9.1436
288.3 K, 333.95 kPa, x1 = 0.5076	11.9154
288.31 K, 348.56 kPa, x1 = 0.679	14.4714
288.31 K, 484.09 kPa, x1 = 0.679	20.8941
288.32 K, 385.31 kPa, x1 = 0.8949	19.104
288.34 K, 101.12 kPa, x1 = 0.8949	4.6234
288.34 K, 236.83 kPa, x1 = 0.8949	11.2187
293.25 K, 588.13 kPa, x1 = 0.3426	18.534
293.25 K, 709.61 kPa, x1 = 0.3426	23.0845
293.26 K, 208.73 kPa, x1 = 0.3426	6.0545
293.26 K, 452.62 kPa, x1 = 0.3426	13.8135
293.27 K, 101.3 kPa, x1 = 0.3426	2.8816
293.27 K, 329.2 kPa, x1 = 0.3426	9.782
293.28 K, 208.37 kPa, x1 = 0.5076	7.0836
293.28 K, 290.55 kPa, x1 = 0.168	7.0037
293.28 K, 407.44 kPa, x1 = 0.168	10.0558
293.29 K, 98.9 kPa, x1 = 0.5076	3.2914
293.29 K, 100.13 kPa, x1 = 0.168	2.3324
293.29 K, 198.29 kPa, x1 = 0.168	4.6983
293.29 K, 317.13 kPa, x1 = 0.5076	11.031
293.29 K, 429.96 kPa, x1 = 0.5076	15.3484
293.29 K, 515.52 kPa, x1 = 0.168	13.0247
293.29 K, 530.45 kPa, x1 = 0.5076	19.4174
293.29 K, 612.66 kPa, x1 = 0.168	15.8319
293.29 K, 715.58 kPa, x1 = 0.168	18.9724
293.29 K, 825.52 kPa, x1 = 0.168	22.5539
293.3 K, 210.11 kPa, x1 = 0.679	8.2494
293.3 K, 641.29 kPa, x1 = 0.5076	24.1912
293.31 K, 101.19 kPa, x1 = 0.679	3.8833
293.31 K, 324.6 kPa, x1 = 0.679	13.0914
293.32 K, 432.86 kPa, x1 = 0.679	17.9448
293.32 K, 546.41 kPa, x1 = 0.679	23.3906
293.34 K, 454.67 kPa, x1 = 0.8949	22.4737
293.35 K, 100.25 kPa, x1 = 0.8949	4.4951
293.35 K, 226.08 kPa, x1 = 0.8949	10.452
293.35 K, 345.6 kPa, x1 = 0.8949	16.5159
